Measurements taken from US5061794A, “Cephalosporin derivatives, and antibacterial agents” (priority 1986, dated 1991).
Where a name gives a salt, the structure may show the parent alone. Read-outs that look alike come from different tables or passages of the source.

Experiments:
E. cloacae Nek 39 = assay: in vitro antibacterial activity, agar plate dilution method (MIC); type: cell-based; conditions: Enterobacter cloacae, NEK39, 16 h, read-out: Minimum Inhibitory Concentration (MIC), *E. cloacae Nek 39, lactamase-producing strain; 10^6 CFU/ml
Outline: (§1)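 First, strains were cultured overnight in Mueller Hinton broth. Next, one loopful went onto drug-containing Mueller Hinton agar (10^6 CFU/ml). Finally, after 37° C. incubation for 16 hours, MIC was determined in μg/ml.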

K. pneumoniae PCI-602 = assay: as above; type: cell-based; conditions: Klebsiella pneumoniae, PCI602, 16 h, read-out: Minimum Inhibitory Concentration (MIC), K. pneumoniae PCI-602; 10^6 CFU/ml
Outline: as §1

K. oxytoca GN10650 = assay: as above; type: cell-based; conditions: Klebsiella oxytoca, GN10650, 16 h, read-out: Minimum Inhibitory Concentration (MIC), *K. oxytoca GN10650, lactamase-producing strain; 10^6 CFU/ml
Outline: as §1

P. vulgaris No. 33 = assay: as above; type: cell-based; conditions: Proteus vulgaris, NO.33, 16 h, read-out: Minimum Inhibitory Concentration (MIC), *P. vulgaris No. 33, lactamase-producing strain; 10^6 CFU/ml
Outline: as §1

E. coli GN5482 = assay: as above; type: cell-based; conditions: Escherichia coli, GN5482, 16 h, read-out: Minimum Inhibitory Concentration (MIC), *E. coli GN5482, lactamase-producing strain; 10^6 CFU/ml
Outline: as §1

M. morganii GN5407 = assay: as above; type: cell-based; conditions: Morganella morganii, GN5407, 16 h, read-out: Minimum Inhibitory Concentration (MIC), *M. morganii GN5407, lactamase-producing strain; 10^6 CFU/ml
Outline: as §1

S. marcescens IAM 1184 = assay: as above; type: cell-based; conditions: Serratia marcescens, IAM1184, 16 h, read-out: Minimum Inhibitory Concentration (MIC)
Outline: as §1

E. cloacae 963 = assay: as above; type: cell-based; conditions: 10^6 CFU/ml
Outline: as §1

S. aureus 209P NIHJ-JC1 = assay: as above; type: cell-based; conditions: Staphylococcus aureus, 16 h
Outline: as §1

P. vulgaris HX-19 = assay: as above; type: cell-based; conditions: Proteus vulgaris, HX19, 16 h, P. vulgaris HX-19; 10^6 CFU/ml; read-out: Minimum Inhibitory Concentration (MIC)
Outline: as §1

E. coli NIHJ JC2 = assay: as above; type: cell-based; conditions: Escherichia coli, NIHJJC2, 16 h, read-out: Minimum Inhibitory Concentration (MIC), E. coli NIHJ JC2, 10^6 CFU/ml, 37° C.
Outline: as §1

K. pneumoniae No. 42 = assay: as above; type: cell-based; conditions: Klebsiella pneumoniae, 10^6 CFU/ml
Outline: as §1

S. marcescens No. 16-2 = assay: as above; type: cell-based; conditions: Serratia marcescens, NO.162, 16 h, read-out: Minimum Inhibitory Concentration (MIC)
Outline: as §1

Ps. cepacia 23 = assay: as above; type: cell-based, Pseudomonas cepacia; conditions: Burkholderia cepacia, 16 h; Ps. cepacia 23; 10^6 CFU/ml; read-out: Minimum Inhibitory Concentration (MIC)
Outline: as §1

E. coli CSH(RE45) = assay: microbe, parasite or virus in culture; type: cell-based; conditions: Escherichia coli, 16 h, read-out: Minimum Inhibitory Concentration (MIC), *E. coli CSH(RE45), lactamase-producing strain; 10^6 CFU/ml
Outline: as §1

E. coli CSH2 (RK1) = assay: microbe, parasite or virus in culture; type: cell-based; conditions: Escherichia coli, 16 h, read-out: Minimum Inhibitory Concentration (MIC), *E. coli CSH2 (RK1), lactamase-producing strain; 10^6 CFU/ml
Outline: as §1

A. calcoaceticus No. 4 = assay: in vitro antibacterial activity, agar plate dilution method (MIC); type: cell-based, Acinetobacter calcoaceticus; conditions: Acinetobacter calcoaceticus, NO.4, 16 h, 10^6 CFU/ml
Outline: as §1

Ps. aeruginosa IF03445 = assay: as above; type: cell-based, Pseudomonas aeruginosa; conditions: Pseudomonas aeruginosa, IF03445, 16 h, read-out: Minimum Inhibitory Concentration (MIC), Ps. aeruginosa IF03445; 10^6 CFU/ml
Outline: as §1

Ps. aeruginosa AK 109 = assay: as above; type: cell-based, Pseudomonas aeruginosa; conditions: Pseudomonas aeruginosa, AK109, 16 h, read-out: Minimum Inhibitory Concentration (MIC)
Outline: as §1

Ps. aeruginosa AKR17 = assay: as above; type: cell-based, Pseudomonas aeruginosa; conditions: Pseudomonas aeruginosa, 16 h; Ps. aeruginosa AKR17; 10^6 CFU/ml; read-out: Minimum Inhibitory Concentration (MIC)
Outline: as §1

Row | SMILES | MIC (E. cloacae Nek 39) [µg/mL] | MIC (K. pneumoniae PCI-602) [µg/mL] | MIC (K. oxytoca GN10650) [µg/mL] | MIC (P. vulgaris No. 33) [µg/mL] | MIC (E. coli GN5482) [µg/mL] | MIC (M. morganii GN5407) [µg/mL] | MIC (P. vulgaris HX-19) [µg/mL] | MIC (E. coli NIHJ JC2) [µg/mL] | MIC (S. marcescens No. 16-2) [µg/mL] | MIC (Ps. cepacia 23) [µg/mL] | MIC (E. coli CSH(RE45)) [µg/mL] | MIC (E. coli CSH2 (RK1)) [µg/mL] | MIC (Ps. aeruginosa IF03445) [µg/mL] | MIC (Ps. aeruginosa AK 109) [µg/mL] | MIC (Ps. aeruginosa AKR17) [µg/mL] | other results
1 | C=CCO/N=C(\C(=O)N[C@@H]1C(=O)N2C(C(=O)O)=C(CSc3nnc(-c4ccc(O)c(O)c4)s3)CS[C@H]12)c1csc(N)n1 [compound 30, sodium 78-[2-allyloxyimino-2-(2-aminothiazol-4-yl)acetamido]-3-[5-(3,4-dihydroxyphenyl)-1,3,4-thiadiazol-2-yl]thiomethyl-3-cephem-4-carboxylate] | 0.1 | < 0.006 | 1.56 | 0.39 | 0.78 | 0.05 | < 0.006 | 0.2 | 12.5 | < 0.006 | 0.78 | 0.0125 | 0.39 | 0.39 | 25 | MIC (S. marcescens IAM 1184): 0.0125 µg/mL; MIC (E. cloacae 963; Enterobacter cloacae, 963, 16 h, read-out: Minimum Inhibitory Concentration (MIC), E. cloacae 963): 0.05 µg/mL; MIC (S. aureus 209P NIHJ-JC1; read-out: Minimum Inhibitory Concentration (MIC), S. aureus 209P NIHJ-JC1, 10^6 CFU/ml, 37° C., 16 hours): 0.78 µg/mL; MIC (K. pneumoniae No. 42; 16 h, *K. pneumoniae No. 42, lactamase-producing strain, read-out: Minimum Inhibitory Concentration (MIC)): < 0.006 µg/mL; MIC (A. calcoaceticus No. 4; A. calcoaceticus No. 4, read-out: Minimum Inhibitory Concentration (MIC)): 0.2 µg/mL
2 | Nc1nc(/C(=N/OCc2ccccc2)C(=O)N[C@@H]2C(=O)N3C(C(=O)O)=C(CSc4nnc(-c5ccc(O)c(O)c5)s4)CS[C@H]23)cs1 [Ex. 32, 7β-[2-(2-aminothiazol-4-yl)-2-benzyloxviminoacetamido]-3-[5-(3,4-dihydroxvphenvl)-1,3,4-thiadiazol-2-yl]thiomethyl-3-cephem-4-carboxylic acid trifluoroacetate] | 0.2 | < 0.006 | 0.39 | 0.2 | 0.78 | 0.1 | 0.0125 | 0.39 | 12.5 | < 0.006 | 1.56 | < 0.006 | 0.78 | 0.39 | > 100 | MIC (S. marcescens IAM 1184; S. marcescens IAM 1184, 10^6 CFU/ml): 0.025 µg/mL; MIC (E. cloacae 963; Enterobacter cloacae, 16 h, E. cloacae 963, read-out: Minimum Inhibitory Concentration (MIC)): 0.1 µg/mL; MIC (S. aureus 209P NIHJ-JC1; read-out: Minimum Inhibitory Concentration (MIC)): 0.39 µg/mL; MIC (K. pneumoniae No. 42; NO.42, 16 h, read-out: Minimum Inhibitory Concentration (MIC), *K. pneumoniae No. 42, lactamase-producing strain): 0.0125 µg/mL; MIC (A. calcoaceticus No. 4; read-out: Minimum Inhibitory Concentration (MIC), A. calcoaceticus No. 4): 0.39 µg/mL
